Source: patent publication US12304910B2, “Janus kinase (JAK) family inhibitor, preparation of same, and applications thereof” (JIANGSU VCARE PHARMATECH CO., LTD., priority 2019, dated 2025)

Experiments:
[1] = Liver microsome test (metabolic stability); assay type: in vitro ADME, human
Protocol: In an incubation system with a total volume of 250 μL, an incubation solution of hum an liver microsomes containing 0.5 mg/mL protein was formulated with a 50 mmol/L PBS buffer (pH=7.4). Before the start of incubation, 2.5 μL of a 100 μmol/L compound to be tested was mixed with 197.5 μL of the above incubation buffer, pre-incubated for 5 min in a 37° C. water bath, and then added with 50 μL of a reducing coenzyme II solution (5 mmol/L) that was likewise pre-incubated for 5 min to start a reaction (in the reaction system, the protein content of liver microsomes from various species was 0.5 g/L, and the final concentration of the compound to be tested was 1 μmol/L), incubated in a 37° C. water bath with shaking, and taken out at 0, 5, 15, 30, and 60 min respectively. 600 μL of a methanol solution of mixed positive and negative internal standards with internal standards Terfenadine (positive ion internal standard, 25 ng/mL) and Tolbutamide (negative ion internal standard, 50 ng/mL) was immediately added to terminate the reaction. The incubation solution after termination was shaken for 2 min and centrifuged (4° C., 16000 r/min) for 10 min, and the supernatant was taken for LC-MS/MS detection to quantitatively analyze the remaining amount of the parent drug. (DMSO=0.1%).
The concentration of the compound at 0 mi incubation was regarded as 100%, and the concentrations at other incubation time points were converted into the remaining percentages. The natural logarithm of the remaining percentage at each time point was linearly regressed against the incubation time, and the slope k was calculated. According to the formula T1/2=−0.693/k, the in vitro half-life was calculated. Clearance in liver microsomes (CLint (μL/min/mg protein)=Ln (2)*1000/T1/2 (min/Protein Conc (mg/ml)).

[2] = target: T1, JAK3 (Homo sapiens, UniProt P52333); test: Kinase activity test (γ33P-ATP isotopic method), JAK3; assay type: biochemical; details: 33P-ATP 10 μM, 2 h reaction
T1 sequence (P52333 1-1124): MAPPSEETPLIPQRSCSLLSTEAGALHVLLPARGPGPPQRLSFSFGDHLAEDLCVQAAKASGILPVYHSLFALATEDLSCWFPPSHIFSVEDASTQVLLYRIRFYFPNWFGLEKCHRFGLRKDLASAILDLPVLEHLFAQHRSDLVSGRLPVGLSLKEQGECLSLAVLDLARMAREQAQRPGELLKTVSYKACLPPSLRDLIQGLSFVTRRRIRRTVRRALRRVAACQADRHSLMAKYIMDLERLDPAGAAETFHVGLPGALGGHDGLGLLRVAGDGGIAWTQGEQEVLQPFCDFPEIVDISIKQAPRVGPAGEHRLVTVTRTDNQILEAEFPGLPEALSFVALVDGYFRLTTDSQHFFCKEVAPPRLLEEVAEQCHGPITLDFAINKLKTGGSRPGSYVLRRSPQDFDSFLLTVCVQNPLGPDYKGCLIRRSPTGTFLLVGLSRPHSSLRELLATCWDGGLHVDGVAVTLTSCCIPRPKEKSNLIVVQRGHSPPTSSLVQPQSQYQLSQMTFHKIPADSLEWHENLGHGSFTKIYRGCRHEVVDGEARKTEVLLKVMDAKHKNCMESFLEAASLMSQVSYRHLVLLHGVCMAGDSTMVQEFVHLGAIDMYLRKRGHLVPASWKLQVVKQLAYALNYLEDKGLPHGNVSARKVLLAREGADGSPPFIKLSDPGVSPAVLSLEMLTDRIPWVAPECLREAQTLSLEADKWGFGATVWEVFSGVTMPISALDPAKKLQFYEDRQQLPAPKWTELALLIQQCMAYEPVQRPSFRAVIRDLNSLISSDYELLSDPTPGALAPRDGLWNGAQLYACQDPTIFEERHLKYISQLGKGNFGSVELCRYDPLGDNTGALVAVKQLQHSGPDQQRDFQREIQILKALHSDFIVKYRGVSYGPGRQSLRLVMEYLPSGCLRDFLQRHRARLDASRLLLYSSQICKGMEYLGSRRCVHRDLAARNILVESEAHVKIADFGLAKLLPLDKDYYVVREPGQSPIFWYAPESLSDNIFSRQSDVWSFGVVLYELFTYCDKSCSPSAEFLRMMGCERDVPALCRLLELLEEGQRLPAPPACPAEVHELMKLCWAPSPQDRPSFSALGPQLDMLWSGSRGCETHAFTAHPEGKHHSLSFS
Protocol: This experiment adopted a γ^33p-ATP isotopic test method to test the inhibitory effect of a compound on kinases JAK1, JAK2, JAK3 and TYK2, and obtained a half inhibitory concentration IC50 of the compound for inhibiting activity of the kinase.
20 mM 4-hydroxyethylpiperazine ethanesulfonic acid buffer (Hepes, pH 7.5), 10 mM magnesium chloride (MgCl2), 1 mM ethylene glycol diethyl ether diamine tetraacetic acid (EGTA), 0.02% dodecyl polyethylene glycol ether (Brij35), 0.02 mg/ml bovine serum albumin (BSA), 0.1 mM sodium vanadate (Na3VO4), 2 mM dithiothreitol (DTT), and 1% dimethylsulfoxide (DMSO).
A compound is dissolved with 100% DMSO to a specific concentration, and then subjected to gradient dilution by an automatic sampling device to obtain the samples to be tested with different concentrations (DMSO solutions).
3.1 diluting the reaction substrate with the basic reaction buffer;
3.2 adding the kinase into the substrate solution, and gently mixing well;
3.3 adding, by the automatic sampling system, the 100% DMSO diluted compounds with different concentrations into the kinase solution, and incubating for 20 min at room temperature; and
3.4 adding ^33p-ATP (10 μM, 10 μCi/μl) at room temperature to initiate the kinase reaction for a duration of 2 h.
The unreacted ATP and the reaction-generated […] in the reaction were removed by an ion exchange filtering system, and then the amount of radioactivity of ^33p isotope in the substrate was detected.
According to the amount of radioactivity, the kinase activities in the systems added with the inhibitors of different concentrations were calculated, to obtain the inhibitors' effects of the compounds of different concentrations on the kinase activity; and fitting was performed with graphpad prism to obtain the inhibitory IC50 values of the compounds.

[3] = human liver microsomes, conclusion from Table 2

- Remaining % (60 min) ([1]; human liver microsomes 0.5 mg/mL protein, compound 1 μmol/L, 37° C., 60 min): 91.9%
- metabolic stability in liver microsomes (in words) [1, 3]: excellent metabolic activity in liver
- half-life at 1 μmol/L ([1]; pH 7.4, human liver microsomes 0.5 mg/mL protein, compound 1 μmol/L, 37° C.): 5.5 h
- microsomal CLint at 1 μmol/L ([1]; pH 7.4, human liver microsomes 0.5 mg/mL protein, compound 1 μmol/L, 37° C., read-out: Clint (μL/min/mg protein)): 4.2 µL/min/mg
- IC50 [2]: 3.1 nM
Compound: NC(=O)c1cnc2[nH]ccc2c1NN1CCC[C@H](C(=O)NCC(F)F)C1 [Example 2, (S)-4-(3-(2,2-difluoroethylcarbamoyl)piperidine-1-amino)-1H-7-azaindole-5-carboxamide]
- metabolic half-life in liver microsomes compared with Tofacitinib (in words) [1, 3]: significantly superior to the positive drug Tofacitinib
